Activity calls are given as the source filed them. The rule behind the calls is not given here.

For this assay, the target named is Luciferin 4-monooxygenase (Photinus pyralis) (UniProt P08659). As to the kind of experiment: inhibition of purified Photinus pyralis luciferase – biochemical, luminescence, dose response (AID 1891). Particulars: purified firefly luciferase.
As for `Nc1ncnc2c1ncn2C1OC(CO)C(O)C1O` (centres undefined), the IC50 (in general, the concentration that inhibits the measured activity by half) is > 11.2 µM (inactive).
Then `Nc1ncnc2c1ncn2[C@@H]1O[C@H](CO)[C@@H](O)[C@H]1O`, with > 11.2 µM (inactive); and `CCNC(=O)C1OC(n2cnc3c(N)ncnc32)C(O)C1O` (centres undefined), with > 11.2 µM (inactive); and `CCNC(=O)[C@H]1O[C@@H](n2cnc3c(N)ncnc32)[C@H](O)[C@@H]1O`, with > 11.2 µM (inactive).

The record behind these values is PubChem BioAssay AID1891 (Broad Institute, 2009).
